Test results: ChEMBL document CHEMBL4813919, “Development of programmable gemcitabine-GnRH pro-drugs bearing linker controllable "click" oxime bond tethers and preclinical evaluation against prostate cancer” (Eur J Med Chem, 2021); call rule not given here
Where a SMILES comes first, the peptide text is derived from it. [ ]: non-standard residue; d: D form. The star is where a group is joined. ξ: configuration not given here. X1 = Nc1ccn(C2OC(COC(=O)CO/N=C/C(=O)*)C(O)C2(F)F)c(=O)n1; X2 = O=C(CO/N=C/C(=O)*)Nc1ccn(C2OC(CO)C(O)C2(F)F)c(=O)n1; X3 = Nc1ccn(C2OC(CO)C(OC(=O)CO/N=C/C(=O)*)C2(F)F)c(=O)n1; ξAla(indol-2-yl) = NC(Cc1cc2ccccc2[nH]1)C(=O)O; pGlu = O=C1CC[CH](C(=O)O)N1

Assays:
[1] = Drug uptake in human DU-145 cells assessed as release of gemcitabine at 10 uM measured upto 8 hrs by LC-MS/MS method; format: ADME, cell-based; settings: du-145, 8 h
[2] = Drug uptake in human DU-145 cells at 10 uM measured upto 8 hrs by LC-MS/MS method; format: ADME, cell-based; settings: du-145, 8 h
[3] = Drug metabolism in human plasma assessed as release of gemcitabine at 1 ug/ml measured after 4 hrs by LC-MS/MS method; format: ADME, cell-free; settings: dose 1 µg/ml
[4] = Stability in human plasma at 1 ug/ml measured after 4 hrs by LC-MS/MS method; format: ADME, cell-free; settings: at 1 µg/mL
[5] = Drug metabolism in human DU-145 cells assessed as release of gemcitabine at 1 uM measured after 24 hrs by LC-MS/MS method; format: ADME, cell-based; settings: du-145, 24 h
[6] = Stability in human DU-145 cells at 1 uM measured upto 10 hrs by LC-MS/MS method; format: ADME, cell-based; settings: du-145, 10 h
[7] = tested on: DU-145; experiment: Antiproliferative activity against human DU-145 cells measured after 72 hrs by MTT assay; format: functional, cell-based; settings: DU-145, 72 h
[8] = tested on: PC-3; experiment: Antiproliferative activity against human PC-3 cells measured after 72 hrs by MTT assay; format: functional, cell-based; settings: PC-3, 72 h
[9] = In vivo agonist activity at GnRH-R in C57BL6/N mouse assessed as release of testosterone in blood at 639.21 ug/kg, ip measured after 2 hrs by LC-MS/MS analysis; format: functional; settings: dose 639.21 µg/kg
[10] = Metabolic stability in mouse liver microsomes assessed as GOXG1-met2 formation at 6.13 uM incubated for 1 hr by LC-MS analysis; format: ADME, Microsome
[11] = Metabolic stability in human liver microsomes assessed as GOXG1-met2 formation at 6.13 uM incubated for 1 hr by LC-MS analysis; format: ADME, Microsome
[12] = Prodrug conversion in mouse C57BL/6N assessed as gemcitabine release at 10 mg/kg, IP measured after 15 mins by LC-MS/MS analysis; format: ADME, organism-based; settings: in vivo, 0.25 h
[13] = Prodrug conversion in mouse C57BL/6N assessed as gemcitabine release at 10 mg/kg, IP measured after 30 mins by LC-MS/MS analysis; format: ADME, organism-based; settings: in vivo, 0.5 h
[14] = Prodrug conversion in mouse C57BL/6N assessed as gemcitabine release at 10 mg/kg, IP measured 1 to 2.5 hrs by LC-MS/MS analysis; format: ADME, organism-based; settings: in vivo, time 1-2.5 hrs
[15] = molecular target: T1, Gonadotropin-releasing hormone receptor (Homo sapiens, UniProt P30968); experiment: Displacement of [125I]-DTrp6-LHRH from human GnRH-R by radioligand binding assay
T1 sequence (P30968 whole entry): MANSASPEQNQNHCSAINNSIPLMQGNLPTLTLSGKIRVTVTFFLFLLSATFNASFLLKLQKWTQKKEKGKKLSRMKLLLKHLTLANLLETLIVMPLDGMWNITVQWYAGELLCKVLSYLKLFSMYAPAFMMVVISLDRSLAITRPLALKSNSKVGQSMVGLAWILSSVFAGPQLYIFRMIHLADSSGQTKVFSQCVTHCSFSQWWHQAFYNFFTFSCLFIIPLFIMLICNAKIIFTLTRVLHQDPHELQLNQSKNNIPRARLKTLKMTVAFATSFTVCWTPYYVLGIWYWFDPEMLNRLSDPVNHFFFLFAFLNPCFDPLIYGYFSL

[16] = In vivo agonist activity at GnRH-R in C57BL6/N mouse assessed as release of testosterone in blood at 105.2 ug/kg, ip measured after 2 hrs by LC-MS/MS analysis; format: functional; settings: dose 105.2 µg/kg
[17] = Drug uptake in C57BL/6N mouse blood at 10 mg/kg, IP measured after 30 mins of dosing by LC-MS/MS analysis; format: ADME, organism-based; settings: whole blood, read-out: Drug uptake
[18] = In vivo agonist activity at GnRH-R in C57BL6/N mouse assessed as release of testosterone in blood at 483.6 ug/kg, ip measured after 2 hrs by LC-MS/MS analysis; format: functional; settings: dose 483.6 µg/kg

Row | Compound | Drug uptake [1] | Drug uptake [2] | Drug metabolism [3] | Stabilty [4] | Stabilty [5] | Stabilty [6] | IC50 [7] [nM] | IC50 [8] [nM] | Drug metabolism [10] | Drug metabolism [11] | Drug metabolism [12] [ng/mL] | Drug metabolism [13] [ng/mL] | Drug metabolism [14] [ng/mL] | IC50 [15] [nM] | concentration at 0.5 h [17] [ng/mL] | Activity [9] [ng/mL] | Activity [16] [ng/mL] | Activity [18] [ng/mL]
1 | CC(C)CC(NC(=O)C(CCCCNC(=O)/C=N/OCC(=O)Nc1ccn(C2OC(CO)C(O)C2(F)F)c(=O)n1)NC(=O)C(Cc1ccc(O)cc1)NC(=O)C(CO)NC(=O)C(Cc1cc2ccccc2[nH]1)NC(=O)C(Cc1c[nH]cn1)NC(=O)C1CCC(=O)N1)C(=O)NC(CCCNC(=N)N)C(=O)N1CCCC1C(=O)NCC(N)=O (stereo unspecified) ([pGlu]H[ξAla(indol-2-yl)]SYK(X2)LRPG-NH2; configuration not given here) | Active | Active | Metabolite_Detected | Stable | Stable | Stable | 590 | 833 |  |  |  |  |  |  |  |  |  | 
2 | Nc1ccn([C@@H]2O[C@H](CO)[C@@H](O)C2(F)F)c(=O)n1 [GEMCITABINE] |  |  |  |  |  |  | 399 | 546 |  |  |  |  |  |  | 685 |  | 0.3 | 
3 | CCNC(=O)[C@@H]1CCCN1C(=O)[C@H](CCCNC(=N)N)NC(=O)[C@H](CC(C)C)NC(=O)[C@@H](CC(C)C)NC(=O)[C@H](Cc1ccc(O)cc1)NC(=O)[C@H](CO)NC(=O)[C@H](Cc1c[nH]c2ccccc12)NC(=O)[C@H](Cc1c[nH]cn1)NC(=O)[C@@H]1CCC(=O)N1 [LEUPROLIDE] |  |  |  |  |  |  |  |  |  |  |  |  |  |  |  |  |  | 40.9

Second part, led by results:

Row | Drug uptake [1] | Drug uptake [2] | Drug metabolism [3] | Stabilty [4] | Stabilty [5] | Stabilty [6] | IC50 [7] [nM] | IC50 [8] [nM] | Drug metabolism [10] | Drug metabolism [11] | Drug metabolism [12] [ng/mL] | Drug metabolism [13] [ng/mL] | Drug metabolism [14] [ng/mL] | IC50 [15] [nM] | concentration at 0.5 h [17] [ng/mL] | Compound | Activity [9] [ng/mL] | Activity [16] [ng/mL] | Activity [18] [ng/mL]
4 | Active | Active | Metabolite_Detected | Stable | Stable | Stable | 611 | 754 | Metabolite_Detected | Metabolite_Detected | 406 | 385 | 600 | 1.9 |  | CC(C)CC(NC(=O)C(CCCCNC(=O)/C=N/OCC(=O)OCC1OC(n2ccc(N)nc2=O)C(F)(F)C1O)NC(=O)C(Cc1ccc(O)cc1)NC(=O)C(CO)NC(=O)C(Cc1cc2ccccc2[nH]1)NC(=O)C(Cc1c[nH]cn1)NC(=O)C1CCC(=O)N1)C(=O)NC(CCCNC(=N)N)C(=O)N1CCCC1C(=O)NCC(N)=O (stereo unspecified) ([pGlu]H[ξAla(indol-2-yl)]SYK(X1)LRPG-NH2; configuration not given here) | 40.1 |  | 
5 | Active | Active | Metabolite_Detected | Unstable | Unstable | Unstable | 494 | 675 |  |  |  |  |  |  |  | CC(C)CC(NC(=O)C(CCCCNC(=O)/C=N/OCC(=O)OC1C(CO)OC(n2ccc(N)nc2=O)C1(F)F)NC(=O)C(Cc1ccc(O)cc1)NC(=O)C(CO)NC(=O)C(Cc1cc2ccccc2[nH]1)NC(=O)C(Cc1c[nH]cn1)NC(=O)C1CCC(=O)N1)C(=O)NC(CCCNC(=N)N)C(=O)N1CCCC1C(=O)NCC(N)=O (stereo unspecified) ([pGlu]H[ξAla(indol-2-yl)]SYK(X3)LRPG-NH2; configuration not given here) |  |  | 
